Laboratory results from the supplement of paper PMC10307832.

What was measured:
Assay in all cases: relative viability (nuclei count vs DMSO), 5 days (fraction); higher = more cells survive
Adavosertib + Alpelisib = compound: C=CCn1c(=O)c2cnc(Nc3ccc(N4CCN(C)CC4)cc3)nc2n1-c1cccc(C(C)(C)O)n1 [Adavosertib] + Cc1nc(NC(=O)N2CCC[C@H]2C(N)=O)sc1-c1ccnc(C(C)(C)C(F)(F)F)c1 [Alpelisib] (partner 2 µM)
Summary of the method: (§1)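 The day after seeding in 1536-well plates, lung cancer cell lines were treated by pin tool with a single drug, or with a fixed anchor-drug dose together with five library-drug doses (not always all listed) in √10 steps. After 5 days, a combined fix-and-stain solution (final 0.05% Triton X-100, 1% formaldehyde, 1 ug/ml Hoechst) was added. Nuclei counted on 4× images gave relative viability as treated counts over vehicle counts, reported as the median of duplicate plates.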

Adavosertib + Dasatinib = compound: C=CCn1c(=O)c2cnc(Nc3ccc(N4CCN(C)CC4)cc3)nc2n1-c1cccc(C(C)(C)O)n1 [Adavosertib] + Cc1nc(Nc2ncc(C(=O)Nc3c(C)cccc3Cl)s2)cc(N2CCN(CCO)CC2)n1 [Dasatinib] (partner 0.075 µM)
Summary of the method: as §1

Nelarabine + Crizotinib = compound: COc1nc(N)nc2c1ncn2[C@@H]1O[C@H](CO)[C@@H](O)[C@@H]1O [Nelarabine] + C[C@@H](Oc1cc(-c2cnn(C3CCNCC3)c2)cnc1N)c1c(Cl)ccc(F)c1Cl [Crizotinib] (partner 1 µM)
Summary of the method: as §1

Nelarabine + Foretinib = compound: COc1nc(N)nc2c1ncn2[C@@H]1O[C@H](CO)[C@@H](O)[C@@H]1O [Nelarabine] + COc1cc2c(Oc3ccc(NC(=O)C4(C(=O)Nc5ccc(F)cc5)CC4)cc3F)ccnc2cc1OCCCN1CCOCC1 [Foretinib] (partner 0.25 µM)
Summary of the method: as §1

| Cell Line | relative viability (Adavosertib + Alpelisib; first compound 0.01 µM) | relative viability (Adavosertib + Alpelisib; first compound 0.03162 µM) | relative viability (Adavosertib + Alpelisib; first compound 0.1 µM) | relative viability (Adavosertib + Alpelisib; first compound 0.3162 µM) | relative viability (Adavosertib + Dasatinib; first compound 0.01 µM) | relative viability (Adavosertib + Dasatinib; first compound 0.03162 µM) | relative viability (Adavosertib + Dasatinib; first compound 0.1 µM) | relative viability (Adavosertib + Dasatinib; first compound 0.3162 µM) | relative viability (Nelarabine + Crizotinib; first compound 0.01 µM) | relative viability (Nelarabine + Crizotinib; first compound 0.03162 µM) | relative viability (Nelarabine + Crizotinib; first compound 0.1 µM) | relative viability (Nelarabine + Crizotinib; first compound 0.3162 µM) | relative viability (Nelarabine + Crizotinib; first compound 1 µM) | relative viability (Nelarabine + Foretinib; first compound 0.01 µM) | relative viability (Nelarabine + Foretinib; first compound 0.03162 µM) | relative viability (Nelarabine + Foretinib; first compound 0.1 µM) | relative viability (Nelarabine + Foretinib; first compound 0.3162 µM) | relative viability (Nelarabine + Foretinib; first compound 1 µM) |
| --- | --- | --- | --- | --- | --- | --- | --- | --- | --- | --- | --- | --- | --- | --- | --- | --- | --- | --- |
| UMC-11 | 1.03 | 1.02 | 1.18 | 1.04 | 0.489 | 0.414 | 0.517 | 0.461 | 0.52 | 0.499 | 0.476 | 0.652 | 0.495 | 1.23 | 0.961 | 0.963 | 1.11 | 0.972 |
| NCI-H1975 | 0.736 | 0.63 | 0.546 | 0.339 | 0.383 | 0.3 | 0.268 | 0.232 | 1.15 | 0.91 | 1.11 | 1.08 | 1.1 | 1.01 | 0.892 | 1.14 | 0.986 | 1.07 |
| NCI-H2405 | 0.765 | 0.878 | 0.874 | 0.764 | 0.198 | 0.217 | 0.183 | 0.206 | 0.918 | 0.824 | 0.769 | 0.784 | 0.818 | 1.07 | 1.04 | 0.95 | 0.988 | 1.03 |
| NCI-H1734 | 0.728 | 0.69 | 0.707 | 0.624 | 0.53 | 0.469 | 0.464 | 0.318 | 0.694 | 0.668 | 0.568 | 0.772 | 0.804 | 1.01 | 0.818 | 0.83 | 0.949 | 0.846 |
| NCI-H1993 | 0.733 | 0.65 | 0.723 | 0.68 | 0.63 | 0.503 | 0.719 | 0.618 | 0.96 | 0.891 | 0.775 | 0.93 | 1.02 | 0.845 | 0.712 | 0.737 | 0.831 | 0.708 |
| NCI-H1792 | 0.67 | 0.649 | 0.697 | 0.48 | – | 0.753 | 0.942 | 0.865 | 0.821 | – | 1.29 | 1.15 | 1.03 | – | – | – | – | – |
| NCI-H358 | 0.831 | 0.769 | 0.693 | 0.336 | 0.159 | 0.144 | 0.149 | 0.139 | 0.58 | 0.481 | 0.4 | 0.573 | 0.514 | 0.854 | 0.666 | 0.622 | 0.854 | 0.762 |
| Calu-6 | 0.983 | 0.856 | 0.94 | 0.793 | – | – | – | – | 0.848 | 0.613 | 0.879 | 0.825 | 0.826 | 1.01 | 0.826 | 0.9 | 0.959 | 0.928 |
| PC-14 | 0.944 | 0.883 | 0.948 | 0.493 | 0.281 | 0.236 | 0.23 | 0.057 | 0.909 | 0.89 | 0.875 | 0.832 | 0.868 | 1.04 | 1.11 | 1.06 | 1.02 | 0.997 |
| NCI-H520 | 0.884 | 0.887 | 1.03 | 0.717 | 0.194 | 0.181 | 0.183 | 0.217 | 0.607 | 0.519 | 0.871 | 1.07 | 0.851 | 1.06 | 0.799 | 0.95 | 0.789 | 0.676 |
| NCI-H23 | 0.639 | 0.775 | 0.591 | 0.346 | 0.737 | 0.838 | 0.788 | 0.412 | 0.505 | 0.485 | 0.297 | 0.495 | 0.515 | 1.13 | 0.862 | 0.94 | 1.09 | 0.948 |
| NCI-H322M | – | 0.77 | 0.711 | 0.543 | 0.238 | 0.225 | 0.247 | 0.255 | 0.884 | 0.88 | 0.853 | 0.948 | 0.837 | 0.972 | 0.948 | 0.816 | 0.939 | 0.976 |
| IA-LM | 0.649 | 0.731 | 0.833 | 0.931 | – | – | – | – | 1.08 | 0.674 | 0.844 | 0.876 | 0.791 | 1.37 | 1.01 | 1.23 | 1.18 | 1.27 |
| A549 | 0.813 | 0.896 | 0.957 | 0.804 | – | – | – | – | 0.735 | 0.666 | 0.742 | 0.803 | 0.671 | 1.11 | 0.853 | 0.972 | 1.01 | 0.98 |
| NCI-H1793 | 0.746 | 0.6 | 0.752 | 0.637 | 0.392 | 0.308 | 0.439 | 0.36 | – | – | – | – | – | 0.84 | 0.747 | 0.709 | 0.731 | 0.713 |
| SW 900 | – | – | – | – | – | 0.607 | 0.645 | 0.36 | – | – | – | – | – | 1.02 | 0.749 | 0.934 | 0.947 | 0.832 |
| NCI-H1623 | – | – | – | – | 0.451 | 0.553 | 0.507 | 0.575 | – | – | – | – | – | 0.971 | 0.818 | 0.879 | 0.757 | 0.834 |
| EBC-1 | 0.98 | 0.843 | 0.921 | 0.81 | – | – | – | – | 0.157 | 0.178 | 0.182 | 0.235 | 0.194 | 0.122 | 0.111 | 0.146 | 0.0922 | 0.105 |
| NCI-H2342 | – | – | – | – | 0.3 | 0.345 | 0.338 | 0.289 | – | – | – | – | – | 0.974 | 0.887 | 0.875 | 0.906 | 1.01 |
| ChaGo-K-1 | – | – | – | – | 0.641 | 0.602 | 0.56 | 0.535 | 1.11 | 1.01 | 1.32 | 1.23 | 1.17 | 0.971 | 0.826 | 0.82 | 0.947 | 0.882 |
| NCI-H1299 | 1.06 | 0.979 | 1.07 | 0.997 | – | – | – | – | 1.04 | 1.03 | 0.963 | 0.979 | 0.966 | 1.15 | 1.08 | 1.13 | 1.12 | 1.13 |
| HCC-44 | 0.881 | 0.864 | 0.813 | 0.958 | – | – | – | – | 0.989 | 0.782 | 0.783 | 0.819 | 0.739 | – | – | – | – | – |
